The experiment relates to hepatic glucose output. Kind of experiment: Glucose production assay in primary hepatocytes. The experiment is classed as cell-based. The note with it: FIG. 5. As to the method:
Primary hepatocytes were cultured in six-well plates (1.4 times 10^6 cells per well) in DMEM with 10% FBS or, in case of hormonal treatments, in serum-free DMEM. The medium was then replaced with 1 ml of glucose production buffer consisting of glucose-free DMEM (pH 7.4), without phenol red, supplemented with 20 mM sodium lactate and 2 mM sodium pyruvate. After a 3-h incubation, 0.5 ml of medium was collected and the glucose concentration measured with a colorimetric glucose assay kit (Sigma). The readings were then normalized to the total protein content determined from the whole-cell lysates. (Yoon J C, et al. Nature 413: 131-8, 2001.)

Molecules are shown by their SMILES.

For `c1ccc2c(-c3nccc4c3[nH]c3ccccc34)c[nH]c2c1` (single isomer, unassigned) [Compound F7, 1-(1H-indol-3-yl)-9H-pyrido[3,4-b]indole], the hepatic glucose output entry was “decreases hepatic glucose output”.

Values taken from patent US20120283282A1, “Photoproducts of Tryptophan, Their Synthesis and Uses Thereof” (priority 2009, published 2012).
